US20230031406A1, “COMPOUNDS AND COMPOSITIONS FOR TREATING CONDITIONS ASSOCIATED WITH NLRP ACTIVITY” (Novartis AG, priority 2018, published 2023)
Read-outs that look alike come from different tables or passages of the source. Values belong to the compound of their own block, whether it stands above or below them.

Test system: PMA-differentiated THP-1 cells
Experiment: IL-1β production in PMA-differentiated THP-1 cells stimulated with gramicidin (hTHP-1 assay containing 2% fetal bovine serum; Procedures 1 and 2)
Type: cell-based, human
Conditions: 2% fetal bovine serum
Outline: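 PMA 20 ng/ml 16-18 h → trypsinise → 50,000 cells/well, RPMI/2% FBS; cpd 1 h (11-pt, 100–0.0017 μM; DMSO 0.37%); gramicidin 5 μM, 2 h; spin; supernatant IL-1β via HTRF.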

[1] = Table B1, class symbols, read-out: Average IC50 of compounds in hTHP-1 assay: hTHP-1 IC50
[2] = Table B3, hTHP-1 assay, class symbols, read-out: IC50
[3] = Homo sapiens, THP-1, Table B3, hTHP-1 assay, class symbols, read-out: IC50
[4] = Homo sapiens, THP-1, Table B2, class symbols, read-out: hTHP-1 IC50
[5] = Homo sapiens, THP-1, Table B1, class symbols, read-out: Average IC50 of compounds in hTHP-1 assay: hTHP-1 IC50

IC50 [1]: 0.04 to 0.2 µM
Structure (SMILES): CC(C)(O)c1csc(S(N)(=O)=NC(=O)Nc2c3c(nc4c2CCC42CC2)CCC3)c1 (single isomer, unassigned) [Compound 114a, (R) or (S)-4-(2-hydroxy-propan-2-yl)-N′-((1′,5′,6′,7′-tetrahydro-2′H-spiro[cyclopropane-1,3′-dicyclopenta[b,e]pyridin]-8′-yl)carbamoyl)thiophene-2-sulfonimidamide]

IC50 (Table B2, class symbols, read-out: hTHP-1 IC50): 0.04 to 0.2 µM
Structure (SMILES): Cc1nc2c(c(NC(=O)N=S(N)(=O)c3cc(C(C)(C)O)cs3)c1C1CC1)CCC2 (single isomer, unassigned) [Compound 623a, (R) or (S)-N′-((3-cyclopropyl-2-methyl-6,7-dihydro-5H-cyclopenta[b]pyridin-4-yl)carbamoyl)-4-(2-hydroxypropan-2-yl)thiophene-2-sulfonimidamide]

IC50 [1]: 0.04 to 0.2 µM
Structure (SMILES): Cc1sc(S(N)(=O)=NC(=O)Nc2c3c(nc4c2CCC4(C)C)CCC3)cc1C(C)(C)O (single isomer, unassigned) [Compound 169b, (R) or (S)-N′-((3,3-dimethyl-1,2,3,5,6,7-hexahydro-dicyclopenta[b,e]pyridin-8-yl)carbamoyl)-4-(2-hydroxypropan-2-yl)-5-mehtylthiophene-2-sulfonimidamide]

IC50 [4]: 5 to 30 µM
Structure (SMILES): CCC1CCc2c1nc1c(c2NC(=O)N=S(N)(=O)c2ccn(C(F)F)n2)CCC1 (single isomer, unassigned) [Compound 668b, (R, R) or (R, S) or (S, R) or (S, S)-1-(Difluoromethyl)-N′-((3-ethyl-1,2,3,5,6,7-hexahydrodicyclopenta [b,e]pyridin-8-yl)carbamoyl)-1H-pyrazole-3-sulfonimidamide]

IC50 [1]: 0.04 to 0.2 µM
Structure (SMILES): CC(C)(O)c1ncc(S(N)(=O)=NC(=O)Nc2c3c(nc4c2CCC42CC2)CCC3)s1 (single isomer, unassigned) [Compound 136b, (R) or (S)-2-(2-hydroxy-propan-2-yl)-N′-((1′,5′,6′,7′-tetrahydro-2′H-spiro[cyclopropane-1,3′-dicyclopenta[b,e]pyridin]-8′-yl)carbamoyl)thiazole-5-sulfonimidamide]

IC50 [4]: 0.2 to 1 µM
Structure (SMILES): C[C@@H]1CCc2c1nc1c(c2NC(=O)N=S(N)(=O)c2ncc(C(C)(C)O)s2)CCC1 (stereo partly drawn) [Compound 140c, 5-(2-Hydroxypropan-2-yl)-N′-(((R)-3-methyl-1,2,3,5,6,7-hexahydrodicyclopenta[b,e]pyridin-8-yl)carbamoyl)thiazole-2-sulfonimidamide]

IC50 [5]: 5 to 30 µM
Structure (SMILES): Cc1nc(C(C)(C)O)ccc1S(N)(=O)=NC(=O)Nc1c2c(nc3c1CCC3)CCC2 (single isomer, unassigned) [Compound 157b, (R) or (S)-N′-((1,2,3,5,6,7-hexahydrodicyclo-penta[b,e]pyridin-8-yl)carbamoyl)-6-(2-hydroxypropan-2-yl)-2-methylpyridine-3-sulfonimidamide]

IC50 [4]: 1 to 5 µM
Structure (SMILES): CC(C)(O)c1csc(S(N)(=O)=NC(=O)Nc2cc(C3CC3)nc3c2CCC3)c1 (single isomer, unassigned) [Compound 176b, (R) or (S)-N′-((2-cyclopropyl-6,7-dihydro-5H-cyclopenta[b]pyridin-4-yl)carbamoyl)-4-(2-hydroxypropan-2-yl)thiophene-2-sulfonimidamide]

IC50 [4]: 1 to 5 µM
Structure (SMILES): CC(C)(O)c1sc(S(N)(=O)=NC(=O)Nc2c3c(nc4c2CCC4)CCC3)cc1F (single isomer, unassigned) [Compound 678a, (R) or (S)-4-Fluoro-N′-((1,2,3,5,6,7-hexahydrodicyclopenta [b,e]pyridin-8-yl)carbamoyl)-5-(2-hydroxypropan-2-yl)thiophene-2-sulfonimidamide]

IC50 [1]: 5 to 30 µM
Structure (SMILES): CC(C)(O)c1cnc(S(N)(=O)=NC(=O)Nc2c3c(nc4c2CCC4)CCC3)s1 (single isomer, unassigned) [Compound 167a, (S) or (R)-N′-((1,2,3,5,6,7-hexahydrodicyclo-penta[b,e]pyridin-8-yl)carbamoyl)-5-(2-hydroxypropan-2-yl)thiazole-2-sulfonimidamide]

IC50 (Homo sapiens, THP-1, Table B1, numeric bounds, read-out: Average IC50 of compounds in hTHP-1 assay: hTHP-1 IC50): > 30 µM
Structure (SMILES): CC1CCc2c1nc1c(c2NC(=O)N=S(N)(=O)c2ncc(C(C)(C)O)s2)CCC1 (single isomer, unassigned) [Compound 140bb, (S,R) or (S,S)-5-(2-hydroxypropan-2-yl)-N′-((3-methyl-1,2,3,5,6,7-hexa-hydrodicyclo-penta[b,e]pyridin-8-yl)carbamoyl)thiazole-2-sulfonimidamide]

IC50 [1]: 5 to 30 µM
Structure (SMILES): CC1CCc2c1nc1c(c2NC(=O)N=S(N)(=O)c2cc(C(C)(C)O)cs2)CCC1C (single isomer, unassigned) [Compound 131c, (S,R,S) and (S,S,R) or (S,R,R) or (S,S,S)-N′-((3,5-dimethyl-1,2,3,5,6,7-hexa-hydrodicyclo-penta[b,e]pyridin-8-yl)carbamoyl)-4-(2-hy-droxypropan-2-yl)thiophene-2-sulfonimidamide]

Further lines, the compound ahead of its results:

Structure (SMILES): NS(=O)(=NC(=O)Nc1c2c(nc(C3CC3)c1C1CC1)CCC2)c1ccn(C(F)F)n1 (single isomer, unassigned) [Example 695, (R) or (S)-N′-((2,3-dicyclopropyl-6,7-dihydro-5H-cyclopenta [b]pyridin-4-yl)carbamoyl)-1-(difluoromethyl)-1H-pyrazole-3-sulfonimidamide]
IC50 [2]: 1 to 5 µM

Structure (SMILES): CC(C)(O)c1ncc(S(N)(=O)=NC(=O)Nc2cc(C(F)F)nc3c2CCC3)s1 (stereo not shown) [Example 614, N′-((2-(difluoromethyl)-6,7-dihydro-5H-cyclopenta[b]pyridin-4-yl)carbamoyl)-2-(2-hydroxypropan-2-yl)thiazole-5-sulfonimidamide]
IC50 (Homo sapiens, THP-1, Table B3, hTHP-1 assay, numeric values, read-out: IC50): > 30 µM

Structure (SMILES): CC1(C)CCc2c1nc1c(c2NC(=O)N=S(N)(=O)c2cnc(C(C)(CO)CO)s2)CCC1 (stereo not shown) [Example 604, 2-(1,3-Dihydroxy-2-methylpropan-2-yl)-N′-((3,3-dimethyl-1,2,3,5,6,7-hexahydrodicyclopenta[b,e]pyridin-8-yl)carbamoyl)thiazole-5-sulfonimidamide]
IC50 [3]: 0.04 to 0.2 µM

Structure (SMILES): CCc1nc2c(c(NC(=O)N=S(N)(=O)c3cnc(C(C)(C)O)s3)c1C1CC1)CCC2 (stereo not shown) [Compound 630, N′-((3-cyclopropyl-2-ethyl-6,7-dihydro-5H-cyclopenta[b]pyridin-4-yl)carbamoyl)-2-(2-hydroxypropan-2-yl)thiazole-5-sulfonimidamide]
IC50 [4]: 0.2 to 1 µM

Structure (SMILES): Cc1c(C(F)(F)F)nc2c(c1NC(=O)N=S(N)(=O)c1nn(C(F)F)cc1F)CCC2 (stereo not shown) [Example 561, 1-(Difluoromethyl)-4-fluoro-N′-((3-methyl-2-(trifluoromethyl)-6,7-dihydro-5H-cyclopenta[b]pyridin-4-yl)carbamoyl)-1H-pyrazole-3-sulfonimidamide]
IC50 [3]: 0.2 to 1 µM

Structure (SMILES): CCn1cc(F)c(S(N)(=O)=NC(=O)Nc2c3c(nc4c2CCC4(C)C)CCC3)n1 (stereo not shown) [Example 638, N′-((3,3-dimethyl-1,2,3,5,6,7-hexahydrodicyclopenta[b,e]pyridin-8-yl)carbamoyl)-1-ethyl-4-fluoro-1H-pyrazole-3-sulfonimidamide]
IC50 [3]: 0.008 to 0.04 µM

Structure (SMILES): C[C@@H]1CCc2c1nc1c(c2NC(=O)N=S(N)(=O)c2nn(C(F)F)cc2F)CCC1 (single isomer, unassigned) [Example 680, (S) or (R)-1-(difluoromethyl)-4-fluoro-N′-(((R)-3-methyl-1,2,3,5,6,7-hexahydrodicyclopenta[b,e]pyridin-8-yl)carbamoyl)-1H-pyrazole-3-sulfonimidamide]
IC50 [2]: 5 to 30 µM

Structure (SMILES): Cc1c(C2CC2)nc2c(c1NC(=O)N=S(N)(=O)c1sc(C(C)(C)O)cc1F)CCC2 (stereo not shown) [Compound 174, N′-((2-cyclopropyl-3-methyl-6,7-dihydro-5H-cyclopenta[b]pyridin-4-yl)carbamoyl)-3-fluoro-5-(2-hydroxypropan-2-yl)thiophene-2-sulfonimidamide]
IC50 [5]: 0.2 to 1 µM

Structure (SMILES): CCc1c(C(F)(F)F)nc2c(c1NC(=O)N=S(N)(=O)c1cc(C(C)(C)O)cs1)CCC2 (stereo not shown) [Compound 609, N′-((3-ethyl-2-(trifluoromethyl)-6,7-dihydro-5H-cyclopenta[b]pyridin-4-yl)carbamoyl)-4-(2-hydroxypropan-2-yl)thiophene-2-sulfonimidamide]
IC50 [4]: 1 to 5 µM

Structure (SMILES): CC(C)c1nc(CO)c(S(N)(=O)=NC(=O)Nc2c3c(nc4c2CCC4(C)C)CCC3)s1 (stereo not shown) [Compound 680, N′-((3,3-dimethyl-1,2,3,5,6,7-hexahydrodicyclopenta[b,e]pyridin-8-yl)carbamoyl)-4-(hydroxymethyl)-2-isopropylthiazole-5-sulfonimidamide]
IC50 [4]: 1 to 5 µM

Structure (SMILES): CC1CCc2c1nc1c(c2NC(=O)N=S(N)(=O)c2ccc(CN(C)C)cc2F)CCC1 (stereo not shown) [Compound 139, 4-((dimethylamino)methyl)-2-fluoro-N′-((3-methyl-1,2,3,5,6,7-hexahydrodicyclopenta[b,e]pyridin-8-yl)carbamoyl)benzenesulfon-imidamide]
IC50 [5]: 0.2 to 1 µM

Structure (SMILES): CC(C)(CO)c1ncc(S(N)(=O)=NC(=O)Nc2c3c(nc4c2CCC4(C)C)CCC3)s1 (stereo not shown) [Example 605, N′-((3,3-dimethyl-1,2,3,5,6,7-hexahydrodicyclopenta[b,e]pyridin-8-yl)carbamoyl)-2-(1-hydroxy-2-methylpropan-2-yl)thiazole-5-sulfonimidamide]
IC50 [3]: 0.2 to 1 µM

Structure (SMILES): CCn1cc(F)c(S(N)(=O)=NC(=O)Nc2c3c(nc(C(F)(F)F)c2C2CC2)CCC3)n1 (single isomer, unassigned) [Example 773, (R) or (S)-N′-((3-cyclopropyl-2-(trifluoromethyl)-6,7-dihydro-5H-cyclopenta[b]pyridin-4-yl)carbamoyl)-1-ethyl-4-fluoro-1H-pyrazole-3-sulfonimidamide]
IC50 (Table B4, class symbols, read-out: hTHP-1 IC50): 0.04 to 0.2 µM
